Data from ChEMBL document CHEMBL3603768, “Identification of 2-[2-(4-tert-butylphenyl)ethyl]-N-(4-fluorophenyl)-1,2,3,4-tetrahydroisoquinoline-6-sulfonamide (29) as an orally available MGAT2 inhibitor” (Bioorg Med Chem, 2015).
In brackets after ≈: the same amount, converted by molar mass.

Key:
[1] = biological target: 2-acylglycerol O-acyltransferase 2 (Homo sapiens, UniProt Q3SYC2); test: Inhibition of human recombinant MGAT2 assessed as reduction in enzyme-mediated deacylation of oleoyl-CoA incubated for 20 mins by CPM dye based fluorescence assay
[2] = biological target: 2-acylglycerol O-acyltransferase 2 (Mus musculus, UniProt Q80W94); test: Inhibition of mouse recombinant MGAT2 assessed as reduction in enzyme-mediated deacylation of oleoyl-CoA incubated for 20 mins by CPM dye based fluorescence assay
[3] = Solubility in water; format: physicochemical
[4] = Drug metabolism in human liver microsomes incubated for 15 mins; format: ADME; settings: read-out: Drug metabolism
[5] = Drug metabolism in mouse liver microsomes incubated for 15 mins; format: ADME; settings: read-out: Drug metabolism
[6] = Solubility in FeSSIF solution at pH 5.0; format: physicochemical
[7] = Cmax in mouse at 100 mg/kg, po; format: ADME, organism-based; set-up: dose 100 mg/kg, route oral; settings: in vivo
[8] = AUC (0 to 4 hrs) in mouse at 100 mg/kg, po; format: ADME, organism-based; set-up: dose 100 mg/kg, time < 4 hr, route oral; settings: in vivo
Mus musculus = test: Inhibition of fat absorption in mouse assessed as reduction in plasma triglyceride AUC (0 to 4 hrs) level at 100 mg/kg, po by oral lipid tolerance test; format: functional

Chain of 2-acylglycerol O-acyltransferase 2 (Homo sapiens, UniProt Q3SYC2) (Q3SYC2 whole entry): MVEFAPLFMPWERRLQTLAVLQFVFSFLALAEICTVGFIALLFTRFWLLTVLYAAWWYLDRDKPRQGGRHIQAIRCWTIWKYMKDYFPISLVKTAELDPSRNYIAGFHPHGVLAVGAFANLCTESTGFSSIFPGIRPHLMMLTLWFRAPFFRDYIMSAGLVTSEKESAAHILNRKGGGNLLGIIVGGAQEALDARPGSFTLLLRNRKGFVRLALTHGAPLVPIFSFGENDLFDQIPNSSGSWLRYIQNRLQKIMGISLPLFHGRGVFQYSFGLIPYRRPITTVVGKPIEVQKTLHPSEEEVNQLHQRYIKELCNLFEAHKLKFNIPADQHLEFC
Chain of 2-acylglycerol O-acyltransferase 2 (Mus musculus, UniProt Q80W94) (Q80W94 whole entry): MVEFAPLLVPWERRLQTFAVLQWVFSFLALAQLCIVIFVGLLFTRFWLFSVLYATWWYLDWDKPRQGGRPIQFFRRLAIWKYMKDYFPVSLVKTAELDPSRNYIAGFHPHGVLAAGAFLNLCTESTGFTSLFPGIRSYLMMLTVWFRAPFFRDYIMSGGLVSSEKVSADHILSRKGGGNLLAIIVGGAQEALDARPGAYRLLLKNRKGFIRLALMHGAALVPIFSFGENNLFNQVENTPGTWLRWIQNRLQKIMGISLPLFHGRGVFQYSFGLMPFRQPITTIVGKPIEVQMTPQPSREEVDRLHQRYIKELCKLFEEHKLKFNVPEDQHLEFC

Row | SMILES | IC50 [1] | solubility [3] | further results
1 | COc1cc(F)ccc1NS(=O)(=O)c1ccc2c(c1)CN(C(=O)Nc1ccc(C(C)(C)C)cc1)C2 | – | 0.607 µg/mL (≈ 1.22 µM) | solubility [6]: 28.3 µg/mL (≈ 56.9 µM); metabolised at 0.25 h [4]: 43.1%; metabolised at 0.25 h [5]: 60.6%; Cmax [7]: 94.3 ng/mL; AUC(0-t) at 4 h [8]: 134 ng·h/mL
2 | COc1ccc(NS(=O)(=O)c2ccc3c(c2)CN(C(=O)Nc2ccc(C(C)(C)C)cc2)C3)c(OC)c1 | 3160 nM | – | –
3 | COc1ccc(NS(=O)(=O)c2ccc3c(c2)CN(C(=O)Nc2ccc(C(C)(C)C)cc2)C3)c(F)c1 | – | < 0.06 µg/mL | solubility [6]: 0.783 µg/mL (≈ 1.57 µM); metabolised at 0.25 h [4]: 20.6%; metabolised at 0.25 h [5]: 51.1%
4 | CCOc1ccc(NS(=O)(=O)c2ccc3c(c2)CN(C(=O)Nc2ccc(C(C)(C)C)cc2)C3)c(F)c1 | 5200 nM | – | –
5 | CCCCCOc1ccc(NS(=O)(=O)c2ccc3c(c2)CN(C(=O)Nc2ccc(C(C)(C)C)cc2)C3)c(F)c1 | – | < 0.06 µg/mL | solubility [6]: 10.2 µg/mL (≈ 18.4 µM); metabolised at 0.25 h [4]: 0.1%; metabolised at 0.25 h [5]: 12.6%
6 | CC(C)(C)c1ccc(CC(=O)N2Cc3ccc(S(=O)(=O)Nc4ccc(F)cc4)cc3C2)cc1 | 8070 nM | < 0.11 µg/mL | –
7 | CC(C)(C)c1ccc(CCN2CCc3ccc(S(=O)(=O)Nc4ccc(F)cc4)cc3C2)cc1 | 3060 nM | – | –

Second part, led by results:

Row | IC50 [1] | solubility [3] | SMILES | further results
8 | 594 nM | < 0.07 µg/mL | CC(C)(C)c1ccc(NC(=O)N2Cc3ccc(S(=O)(=O)Nc4ccc(F)cc4)cc3C2)cc1 | IC50 [2]: 1310 nM; metabolised at 0.25 h [4]: 12.3%; metabolised at 0.25 h [5]: 70.9%
9 | 685 nM | – | CC(C)(C)c1ccc(NC(=O)N2Cc3ccc(S(=O)(=O)Nc4ccc(F)cc4F)cc3C2)cc1 | –
10 | 1110 nM | – | CC(C)(C)c1ccc(NC(=O)N2Cc3ccc(S(=O)(=O)Nc4ccc(F)cc4Cl)cc3C2)cc1 | –
11 | 2490 nM | – | CCc1cc(F)ccc1NS(=O)(=O)c1ccc2c(c1)CN(C(=O)Nc1ccc(C(C)(C)C)cc1)C2 | –
12 | 733 nM | – | CCOc1cc(F)ccc1NS(=O)(=O)c1ccc2c(c1)CN(C(=O)Nc1ccc(C(C)(C)C)cc1)C2 | –
13 | 2300 nM | – | CCCOc1cc(F)ccc1NS(=O)(=O)c1ccc2c(c1)CN(C(=O)Nc1ccc(C(C)(C)C)cc1)C2 | –
14 | 1980 nM | – | CCCOc1ccc(NS(=O)(=O)c2ccc3c(c2)CN(C(=O)Nc2ccc(C(C)(C)C)cc2)C3)c(F)c1 | –
15 | 547 nM | – | CCCCOc1ccc(NS(=O)(=O)c2ccc3c(c2)CN(C(=O)Nc2ccc(C(C)(C)C)cc2)C3)c(F)c1 | –
16 | 2120 nM | 270 µg/mL (≈ 597 µM) | CC(C)(C)c1ccc(CCN2Cc3ccc(S(=O)(=O)Nc4ccc(F)cc4)cc3C2)cc1 | –
17 | 1520 nM | 641 µg/mL (≈ 1370 µM) | CC(C)(C)c1ccc(CCN2CCc3cc(S(=O)(=O)Nc4ccc(F)cc4)ccc3C2)cc1 | IC50 [2]: 1170 nM; solubility [6]: 385 µg/mL (≈ 825 µM); metabolised at 0.25 h [4]: 14.6%; metabolised at 0.25 h [5]: 47.8%; Cmax [7]: 1200 ng/mL; AUC(0-t) at 4 h [8]: 1810 ng·h/mL; inhibition in vivo at 100 mg/kg (Mus musculus): 57%
